Series [1] in a line: Depot formation at the injection site, fluorescence-labelled compounds, photos (Example 2a). Details: species or system Mice C57Bl/6. Conditions: mouse, in vivo, sc. The method, then: On day 0 mice were injected subcutaneously into the right flank with a total volume of 100 μl containing the above mentioned compounds. Animals were sacrificed at the indicated time points after injection and photos were taken from the injection sites (FIG. 2a).

Series [2] in a line: FACS analyses of lymphoid and non-lymphoid tissues for CpG-ODN-Cy5 (Example 2b). Conditions: mouse, in vivo, sc. Details: species or system Mice C57B1/6. The method, then:
Mice were injected subcutaneously into the right flank with a total volume of 100 μl containing the above mentioned compounds. One day after injection, mice were sacrificed and FACS-analyses were performed from secondary lymphoid organs (draining lymph node, spleen) as well as non-lymphoid tissues (lung, liver, kidney, heart) (FIG. 2b).

Series [3] can be described thus: Depot formation at the injection site at day 4, labelled TRP-2 peptide/pR60/CpG-ODN (Example 3). In kind it is in vivo, Mice C57Bl/6. Conditions: injected either alone or in combination with CpG-ODN-Cy5. The method, then:
On day 0 mice were injected subcutaneously into the right flank with a total volume of […] containing the above mentioned compounds. Animals were sacrificed at day 4 after injection and photos were taken from the injection sites (FIG. 3).

Series [4] concerns CD11c+ sorted BM-DC. Nature of the series: CpG-ODN-induced production of TNF-α and IL-6 by murine BM-DC in vitro, poly-L-arginine (Example 5). It counts as cell-based, C57Bl/6 mice. Conditions: substance alone (poly-L-arginine 10 μg/ml; CpG-ODN 1668 1 nmol/ml), 24 h, supernatant ELISA. The method, then: (§1) Murine dendritic cells (DC) were generated from bone-marrow precursor cells of C57Bl/6 mice as previously described (Inaba 1992). Briefly, bone marrow cells were obtained by flushing the femurs and tibias with medium. Cells were depleted of lymphocytes, granulocytes and MHC class II^+cells by Ab-complement-mediated lysis. Dead cells were removed by Ficoll gradient (Ficoll Separating Solution, density […]; Biochrom KG, Germany). The remaining cells (1×10^6/ml) were cultured in 24-well culture plates in high glucose DMEM medium (PAA Laboratories GmbH, Linz, Austria; E 15-009) supplemented with 10% heat-inactivated FCS, 10. mM sodium pyruvate, 2 mM L-glutamine, […] gentamicin, 0.5 mM 2-mercaptoethanol (all supplements from PAA Laboratories GmbH, Linz, Austria), 20 ng/ml GM-CSF and 250 U/ml IL-4. On day 3 of culture, cells were fed with fresh medium. On day 6 of culture, non-adherent cells and loosely adherent aggregates were harvested, washed and re-plated in 6-well culture plates (2×10^6/5 ml). After additional 1 day of culture, non-adherent cells were collected for analyses. […] For in vitro-stimulations, day 7-cultured bone marrow cells were further enriched for CD11c^+ cells (=DC) using magnetic beads (Miltenyi, Bergisch-Gladbach, Germany). The purity of BM-DC was more than 95% as determined by flow cytometry analyses. […] Supernatants were harvested after 24 h and analysed for the production of TNF-α and IL-6 using specific ELISAs.
Background: An ELISA detects its analyte on a solid surface through an enzyme-linked reagent.

For series [5], the system named is CD11c+ sorted BM-DC. Put plainly: CpG-ODN-induced production of TNF-α and IL-6 by murine BM-DC in vitro, KLK (Example 7). In kind it is cell-based, C57B1/6 mice. The conditions noted are these: substance alone (KLK 16, 8 μg/ml; CpG-ODN 1668 0.5 nmol/ml); 24 h; supernatant ELISA. The method, then: as §1
Murine dendritic cells (DC) were generated from bone-marrow precursor cells of C57B1/6 mice as described in example 5.

In the next series the test system is TNF-a and IL-6. Nature of the series: BCG/CpG-ODN-induced systemic production of TNF-a and IL-6 in vivo, serum ELISA (Example 8). Details: species or system Mice C57Bl/6. Conditions: one hour after s.c. injection into the flank; ELISA. The method, then: Mice were injected subcutaneously into the flank with a total volume of 100 μl, containing the above mentioned compounds. One hour after injection blood was taken from the tail-vein and serum was prepared. The amount of the pro-inflammatory cytokines TNF-a and IL-6 in the sera was determined by cytokine-specific ELISAs according to the manufacturer's instructions (R&D Systems, Inc., Minneapolis, Minn.).

No end group written: not given here.

On to “CpG-ODN-Cy5: phosphothioate-modified, Cy5-labeled oligodinucleotides containing a CpG motif: tcc atg acg ttc ctg atg ct (DNA TCCATGACGTTCCTGATGCT; DNA, all phosphorothioate, methylation of C not given here; Cy5 label)”, for which the “distribution of CpG-ODN-Cy5 after injection” value in series [1] is given as “distribution of CpG-ODN-Cy5 all over the skin”. Further, the “CpG-ODN-Cy5 in secondary lymphoid organs and non-lymphoid tissues (FACS)” value in series [2] was “detectable in secondary lymphoid organs (draining lymph node, spleen) and non-lymphoid tissues (lung, liver, kidney, heart)”.
With “TRP-2181-188-peptide-FITC: FITC-labeled TRP-2-Peptide (VYDFFVWL), MHC class I (H-2 Kb) restricted epitope of mouse tyrosinase related protein-2 (also: FITC label, site not given here)”, in series [3], the “presence of the labelled peptide at the injection site” value is on record as “not detectable at the injection site at day 4”.
Consider “tcc atg acg ttc ctg atg ct (TCCATGACGTTCCTGATGCT; chemistry not given here) [CpG-ODN 1668, phosphothioate-modified oligodinucleotides containing a CpG-motif, reference compound]”, for which, in the series with CD11c+ sorted BM-DC [4] (listed as CPG-ODN 1668), the “production of IL-6 by murine BM-DC” value is given as “induces the production” and the “production of TNF-α by murine BM-DC” value is recorded as “induces the production”. In the series on CD11c+ sorted BM-DC [4] (listed as CpG-ODN), the “production of IL-6 by murine BM-DC” value is recorded as “significant amounts of both cytokines are produced” and the “production of TNF-α by murine BM-DC” value is “significant amounts of both cytokines are produced”. Also, in the series with CD11c+ sorted BM-DC [5], the “production of IL-6 by murine BM-DC” value was “induces the production” and the “production of TNF-a by murine BM-DC” value is “induces the production”. In the series with TNF-a and IL-6, the “production of IL-6 in serum after injection” value was “induces the systemic production” and the “production of TNF-a in serum after injection” value is reported as “induces the systemic production”.
